In patent US5698547A, “Cephalosporin antibiotics” (Microcide Pharmaceuticals, Inc., priority 1995, dated 1997) one finds MIC, Mortality and ED50 data, which are given here for twelve compounds.

In experiment [1] the test system is S. aureus Col (Meth^R) (lac^-). The experiment in a line: MIC by agar dilution, S. aureus Col (Meth^R) (lac^-). It is filed as cell-based. To be noted: Staphylococcus aureus; agar dilution; S. aureus Col (Meth^R) (lac^-); read-out: MIC. Here is the method: The compounds of the invention were evaluated against several β-lactamresistant bacteria strains by determining the minimum inhibitory concentration (MIC, μg/ml) of each compound with respect to each strain. The MIC, the lowest concentration of antibiotic which inhibits growth of the test organism, was determined by the agar dilution method.
To determine the MIC for bacterial isolates, the test compound was incorporated in a series of two-fold dilutions into liquified Mueller-Hinton agar. Upon solidification, a number of different bacterial strains were spot inoculated with a replicating device onto the agar surface. […] The procedures used in these studies have been standardized by the National Committee for Clinical Laboratory Standards (NCCLS), as per the NCCLS publication entitled METHODS FOR DILUTION ANTIMICROBIAL SUSCEPTIBILITY TESTS (1991), which is incorporated herein by reference.
Aliquots of antimicrobial agents were prepared in phosphate buffered saline (PBS) at pH 7.2. Tween 20 or DMSO was used as a solubilizing vehicle as needed. Standard methods of vortexing, sonicating and gentle heat were used to facilitate solubilizing the test agent. Typically, the concentration of the stock solution was 10× that of the highest drug concentration tested. A 1.28 mg/mL stock solution was used with a subsequent highest working concentration of 128 μg/mL. Serial two-fold dilutions were done through ≤0.25 μg/mL. Each drug level was tested in duplicate. Two-fold drug dilutions were done in sterile 50 mL tubes with a final drug volume of 5 mL. Upon the addition of 45 mL of molten agar, a 10-fold dilution resulted. Two, 25 mL. plates were then poured into 15×150 mm square Petri plates with grids and allowed to harden.
A control plate with a reference drug, either cefotaxime, vancomycin or imipenem, was used as the positive growth control. Stock concentrations of reference antibiotics were prepared and frozen at -80° C. Upon preparation, the control plates were sealed and stored in the refrigerator for up to 1 week prior to use; however, imipenem control plates had to be prepared just prior to use. All test plates were used within 24 hours of preparation.
Satisfactory results were obtained where the inoculum contained about 10^4 colony forming units (cfu) ±0.5 logs. Starting with pure cultures of the test isolates on agar plates, a few isolated colonies were transferred to a tube of nutrient broth and allowed to grow 4-6 hours at 35°-36° C. to reach log-phase growth. Dropwise addition of the broth culture to PBS was done to match a 0.5 McFarland turbidity standard equal to 10^8 cfu/mL. This was further diluted ten-fold in PBS to reach a working inoculum concentration of 10^7 cfu/mL. When 1 μL of the working inoculum was applied to the agar surface a concentration of about 10^4 cfu per spot was obtained.
Disposable sterile 1 μL loops were used to inoculate test plates, with each isolate in a designated grid on the agar plate. An alternate method of inoculation involved the use of a replica plater, a device with 48 steel pins allowing the simultaneous inoculation of multiple isolates. After the spots had dried, the plates were incubated at 35°-36° C. for 16-20 hours. Endpoints were assessed as the minimum inhibitory concentration (MIC) of antimicrobial agent.
The novel agents of this invention are notable for their enhanced activity against S. aureus Col and Enterococci (E. faecium and E. faecalis). The S. aureus Col strain is a high-level PBP2a producer, whereas S. aureus Col 8A, its isogenic partner, lacks PBP2a. […] Thus, the compounds of the present invention are effective against PBP2a-producing bacteria.
On the technique in general: Agar dilution tests growth on a series of plates holding different concentrations.

Experiment [2] relates to methicillin-susceptible S. aureus strain ATCC 13709. Put plainly: murine model for lethal bacteremic peritonitis. It counts as in vivo, female Swiss-Webster mice. The conditions noted are these: subcutaneous, 72 h. Here is the method:
Groups of 5 female Swiss-Webster mice (Simonsen, Gilroy, Calif.) each are challenged by the intraperitoneal (IP) route with tenfold increments of a bacterial inoculum. This permits calculation of the mean lethal dose (LD50) and the LD100. For preliminary evaluation of a new antibiotic, mice are challenged IP with an LD100 titer of bacteria. In two equal doses administered at the time of bacterial challenge and 2 hours later, groups of 10 mice each are treated subcutaneously with two-fold increments of the test drug and an antibiotic of known efficacy in mice and humans (i.e., positive control). Mice are observed for 72 h. Those alive at 72 h are considered long term survivors. The total drug dose in mg/kg that protects 50% of mice in a group from death is termed the mean protective dose (PD50). PD50 s are similarly determined for several pathogens. The quantitative endpoints for the new drug are then compared with those obtained with reference antibiotics.
Six ten-fold dilutions of inoculum suspended in 0.5 mL of sterilized 7% hog gastric mucin (Sigma) are injected IP in groups of 5 mice each. A control group of 5 mice receive mucin alone. Mice are observed for 72 h. Those alive at 72 h are considered long term survivors. The mean lethal dose (LD50) and 100% lethal dose (LD100) are determined by the probit test.
For antibiotic efficacy studies, mice are challenged IP with bacterial titers that will afford an LD100 for the test strain. In two equal doses administered at the time of bacterial challenge and 2 hours later, groups of 10 mice each are treated by the subcutaneous route (SC) with twofold increments of the test antibiotic; another group is treated similarly with a reference antibiotic of known efficacy in animals and man. Drug doses can range from 0.01 to 512 mg/kg. If the drug is poorly soluble, Tween 20 or propylene glycol will be employed to solubilize the drug. Animals are observed for 72 h. The 50% protective dose (PD50) is calculated in mg/kg by the probit method. The PD50 is the same as the 50% effective dose (ED50) and the 50% curative dose (CD50). Samples of blood from the hearts of all animals that die and from half the mice that survive are cultured on brain-heart infusion agar. Animals that received a protective dosage of the test drug will be alive at 72 h, although they may appear moderately ill to very ill during the observation period. […] Most of these mice will die within 6 to 48 h. Those alive at 72 h will be considered long term survivors.
(Compound numbers correspond to those in MIC tables; data
reported for challenge with methicillin-susceptible S. aureus

In brackets after ≈: the same amount, converted by molar mass.

With `COC(=O)c1ccccc1SC1=C(C(=O)O)N2C(=O)[C@@H](NC(=O)Cc3ccccc3)[C@H]2SC1` [Cmpd 19, (7R)-7-[(Phenylacetyl)amino]-3-(o-carbomethoxyphenylthio)-3-cephem-4-carboxylic acid], in experiment [1], the MIC is 4 µg/mL (≈ 8.25 µM). Same read-out and setting: next, `Nc1nc(/C(=N/O)C(=O)N[C@@H]2C(=O)N3C(C(=O)O)=C(Sc4ccccc4I)CS[C@H]23)cs1` [Cmpd 22, (7R)-7-[(Z)-2-(aminothiazol-4-yl)-2-(hydroxyimino)acetamido]-3-(o-iodophenylthio)-3-cephem-4-carboxylic acid]: 2 µg/mL (≈ 3.31 µM). Still for that read-out and setting: next, `O=C(Cc1ccccc1)N[C@@H]1C(=O)N2C(C(=O)O)=C(Sc3ccc(Br)cc3)CS[C@H]12` [Cmpd 5, (7R)-7-[(Phenylacetyl)amino]-3-(p-bromophenylthio)-3-cephem-4-carboxylic acid]: 2 µg/mL (≈ 3.96 µM); `O=C(Cc1ccccc1)N[C@@H]1C(=O)N2C(C(=O)O)=C(Sc3nnnn3-c3ccccc3)CS[C@H]12` [Cmpd 94, (7R)-7-[(Phenylacetyl)amino]-3-(1-N-phenyltetrazol-5-ylthio)-3-cephem-4-carboxylic acid]: 4 µg/mL (≈ 8.09 µM); `O=C(Cc1cccs1)N[C@@H]1C(=O)N2C(C(=O)O)=C(Sc3ccccc3Br)CS[C@H]12` [Cmpd 20, (7R)-7-[(2-Thienylacetyl)amino]-3-(o-bromophenylthio)-3-cephem-4-carboxylic acid]: 0.5 µg/mL (≈ 0.978 µM). Same read-out and setting: next, `N#CCC(=O)N[C@@H]1C(=O)N2C(C(=O)O)=C(Sc3ccccc3C#N)CS[C@H]12` [Cmpd 52, (7R)-7-[(Cyanoacetyl)amino]-3-(2-cyanophenylthio)-3-cephem-4-carboxylic acid]: 4 µg/mL (≈ 9.99 µM); `COc1cccc(-n2nccc2SC2=C(C(=O)O)N3C(=O)[C@@H](NC(=O)Cc4ccccc4)[C@H]3SC2)c1` [Cmpd 117, (7R)-7-[(Phenylacetyl)amino]-3-(1-N-(3-methoxyphenyl)pyrazol-5-ylthio)-3-cephem-4-carboxylic acid]: 8 µg/mL (≈ 15.3 µM); `O=C1CNC(SCc2ccccc2SC2=C(C(=O)O)N3C(=O)[C@@H](NC(=O)Cc4ccccc4)[C@H]3SC2)=N1` [Cmpd 68]: 8 µg/mL (≈ 14.4 µM). `Nc1nc(-c2ccccc2)c(SC2=C(C(=O)O)N3C(=O)[C@@H](NC(=O)Cc4ccccc4)[C@H]3SC2)s1` [Cmpd 92, (7R)-7-[(Phenylacetyl)amino]-3-(2-amino-4-phenylthiazol-5-ylthio)-3-cephem-4-carboxylic acid]: the MIC in experiment [1] amounted to 2 µg/mL (≈ 3.81 µM).

Consider `O=C(Cc1ccccc1)N[C@@H]1C(=O)N2C(C(=O)O)=C(Sc3ccc(C(F)(F)F)cc3)CS[C@H]12` [Cmpd 40, (7R)-7-[(Phenylacetyl)amino]-3-(4-trifluoromethylphenylthio)-3-cephem-4-carboxylic acid], for which, in experiment [1], the minimal inhibitory concentration (MIC) is 4 µg/mL (≈ 8.09 µM).

Consider `O=C(Cc1ccccc1)N[C@@H]1C(=O)N2C(C(=O)O)=C(Sc3ccc4c(c3)oc3ccccc34)CS[C@H]12` [Cmpd 7, (7R)-7-[(Phenylacetyl)amino]-3-(dibenzofuranyl-3-thio)-3-cephem-4-carboxylic acid], for which the minimum inhibitory concentration (MIC) in experiment [1] worked out at 4 µg/mL (≈ 7.74 µM). Regarding `CN[C@H](CC(C)C)C(=O)N[C@H]1C(=O)N[C@@H](CC(N)=O)C(=O)N[C@H]2C(=O)N[C@H]3C(=O)N[C@H](C(=O)N[C@H](C(=O)O)c4cc(O)cc(O)c4-c4cc3ccc4O)[C@H](O)c3ccc(c(Cl)c3)Oc3cc2cc(c3O[C@@H]2O[C@H](CO)[C@@H](O)[C@H](O)[C@H]2O[C@H]2C[C@](C)(N)[C@H](O)[C@H](C)O2)Oc2ccc(cc2Cl)[C@H]1O` [Vancomycin, reference compound], the Mortality in experiment [2] (dose 0.625 mg/kg) was 8/10; in experiment [2] (dose 1.25 mg/kg), 6/10; in experiment [2] (dose 2 mg/kg), 8/10; in experiment [2] (dose 2.5 mg/kg), 5/10; in experiment [2] (dose 4 mg/kg), 2/10; in experiment [2] (dose 5 mg/kg) it was 5/10. Besides, the Mortality in experiment [2] (dose 8 mg/kg) was 0/10; in experiment [2] (dose 10 mg/kg) it was 2/10; in experiment [2] (dose 16 mg/kg) it was 0/10. For the same compound, in experiment [2] (two equal doses, S. aureus ATCC 13709 IP challenge, 4320 min), the ED50 worked out at 2.79 mg/kg.

In general, MIC refers to the smallest concentration in the dilution series that meets the test's criterion for growth inhibition. The term ED50 denotes the dose at which the effect has come halfway, by size or by number of responders. The low end stands for greater potency, the high end for weaker potency.
